Read-outs that look alike come from different tables or passages of the source.
Tests used:
Assay type in all cases: biochemical
LATS1 = target: T1, LATS1 (Homo sapiens, UniProt O95835); assay: RBC HotSpot kinase assay (33P-ATP, P81 filter-binding), LATS1; conditions: read-out: LATS1 IC50
T1 sequence (O95835 1-1130): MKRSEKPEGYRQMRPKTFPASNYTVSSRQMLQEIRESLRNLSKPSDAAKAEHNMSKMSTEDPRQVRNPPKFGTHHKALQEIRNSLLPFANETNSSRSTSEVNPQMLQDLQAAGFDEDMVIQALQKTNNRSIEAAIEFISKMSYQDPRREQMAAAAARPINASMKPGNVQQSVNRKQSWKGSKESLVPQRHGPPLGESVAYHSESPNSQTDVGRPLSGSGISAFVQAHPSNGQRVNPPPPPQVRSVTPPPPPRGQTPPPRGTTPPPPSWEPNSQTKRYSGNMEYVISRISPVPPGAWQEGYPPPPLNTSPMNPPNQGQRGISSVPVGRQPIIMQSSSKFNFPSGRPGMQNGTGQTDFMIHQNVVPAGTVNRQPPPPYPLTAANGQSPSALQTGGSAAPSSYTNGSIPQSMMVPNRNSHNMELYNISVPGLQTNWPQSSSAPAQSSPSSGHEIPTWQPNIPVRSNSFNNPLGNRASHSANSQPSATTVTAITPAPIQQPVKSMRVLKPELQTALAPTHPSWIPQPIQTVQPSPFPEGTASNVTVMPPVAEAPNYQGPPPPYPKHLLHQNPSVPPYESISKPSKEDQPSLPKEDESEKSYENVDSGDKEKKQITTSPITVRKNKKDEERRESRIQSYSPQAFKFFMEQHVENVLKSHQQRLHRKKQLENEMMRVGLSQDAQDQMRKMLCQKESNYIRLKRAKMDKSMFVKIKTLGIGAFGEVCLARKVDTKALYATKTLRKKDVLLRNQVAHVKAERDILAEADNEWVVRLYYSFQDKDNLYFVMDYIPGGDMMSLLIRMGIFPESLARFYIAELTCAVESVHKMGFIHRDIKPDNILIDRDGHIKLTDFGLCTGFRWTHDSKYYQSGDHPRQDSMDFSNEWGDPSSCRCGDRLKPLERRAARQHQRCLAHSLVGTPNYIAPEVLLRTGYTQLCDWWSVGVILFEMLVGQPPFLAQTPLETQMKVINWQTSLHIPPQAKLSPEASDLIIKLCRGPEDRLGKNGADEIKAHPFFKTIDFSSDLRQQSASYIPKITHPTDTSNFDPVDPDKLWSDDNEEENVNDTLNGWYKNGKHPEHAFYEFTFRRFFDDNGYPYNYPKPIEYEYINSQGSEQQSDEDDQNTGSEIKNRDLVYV
Procedure, shortened: (§1)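 Kinase in Hepes pH 7.5 buffer with Mg2+, EGTA, Brij35, BSA, vanadate, DTT and 1% DMSO, plus required cofactors and substrate, was preincubated 20 min at room temperature with compound. Reaction was started with 33P-ATP and run 2 h, then detected by P81 filter binding. IC50 (nM) came from 10-point singlet curves.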

AKT = AKT (Homo sapiens, UniProt P31749); assay: RBC HotSpot kinase assay (33P-ATP, P81 filter-binding), AKT; conditions: read-out: AKT IC50
Chain of AKT (P31749 whole entry): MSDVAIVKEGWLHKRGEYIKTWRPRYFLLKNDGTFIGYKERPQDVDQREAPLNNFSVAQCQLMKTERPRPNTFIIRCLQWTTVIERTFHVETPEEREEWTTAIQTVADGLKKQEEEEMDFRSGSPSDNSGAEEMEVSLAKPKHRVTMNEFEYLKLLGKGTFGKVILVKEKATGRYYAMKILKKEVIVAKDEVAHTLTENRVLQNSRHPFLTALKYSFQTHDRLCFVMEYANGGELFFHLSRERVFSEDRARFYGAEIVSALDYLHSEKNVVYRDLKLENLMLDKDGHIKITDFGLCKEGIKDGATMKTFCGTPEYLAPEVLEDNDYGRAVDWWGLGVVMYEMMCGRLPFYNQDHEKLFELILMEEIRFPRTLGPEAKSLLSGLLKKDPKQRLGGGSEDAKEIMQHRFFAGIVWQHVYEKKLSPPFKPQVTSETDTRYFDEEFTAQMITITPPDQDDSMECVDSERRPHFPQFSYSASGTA
Procedure, shortened: as §1

LATS2 = target: T2, LATS2 (Homo sapiens, UniProt Q9NRM7); assay: RBC HotSpot kinase assay (33P-ATP, P81 filter-binding), LATS2; conditions: read-out: LATS2 IC50
T2 sequence (Q9NRM7 1-1088): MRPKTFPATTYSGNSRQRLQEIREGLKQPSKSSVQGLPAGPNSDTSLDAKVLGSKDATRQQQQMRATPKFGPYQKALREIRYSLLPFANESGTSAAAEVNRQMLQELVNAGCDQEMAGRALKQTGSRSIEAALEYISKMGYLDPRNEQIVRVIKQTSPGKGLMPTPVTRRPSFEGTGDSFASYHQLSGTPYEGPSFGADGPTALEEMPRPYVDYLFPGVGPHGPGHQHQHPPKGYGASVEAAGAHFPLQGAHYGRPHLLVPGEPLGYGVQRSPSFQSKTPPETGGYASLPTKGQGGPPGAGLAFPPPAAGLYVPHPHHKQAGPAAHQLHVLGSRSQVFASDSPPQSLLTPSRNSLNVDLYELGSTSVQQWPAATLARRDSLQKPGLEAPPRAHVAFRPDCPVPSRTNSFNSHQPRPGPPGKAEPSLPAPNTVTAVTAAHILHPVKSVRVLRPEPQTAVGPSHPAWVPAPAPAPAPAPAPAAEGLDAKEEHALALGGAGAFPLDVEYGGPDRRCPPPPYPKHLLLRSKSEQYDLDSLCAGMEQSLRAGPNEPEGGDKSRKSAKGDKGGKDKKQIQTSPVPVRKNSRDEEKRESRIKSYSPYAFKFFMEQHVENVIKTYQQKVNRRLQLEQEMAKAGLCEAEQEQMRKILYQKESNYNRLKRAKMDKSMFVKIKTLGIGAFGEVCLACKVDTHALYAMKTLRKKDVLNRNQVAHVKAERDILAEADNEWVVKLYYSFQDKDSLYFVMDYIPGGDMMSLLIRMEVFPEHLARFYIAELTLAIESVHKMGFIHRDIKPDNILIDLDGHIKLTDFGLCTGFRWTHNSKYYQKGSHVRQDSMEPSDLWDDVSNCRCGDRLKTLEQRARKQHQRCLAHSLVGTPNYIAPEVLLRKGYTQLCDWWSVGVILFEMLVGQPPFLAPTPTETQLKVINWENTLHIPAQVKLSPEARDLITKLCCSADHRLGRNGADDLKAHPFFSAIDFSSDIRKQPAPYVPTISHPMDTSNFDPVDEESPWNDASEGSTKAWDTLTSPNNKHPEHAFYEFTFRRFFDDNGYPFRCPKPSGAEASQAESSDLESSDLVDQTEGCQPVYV
Procedure, shortened: as §1

[1] = Table 32, biochemical kinase assay
[2] = Table 28, biochemical kinase assay

IC50 (LATS1; [2]) [nM] | IC50 (AKT; [2]) [nM] | IC50 (LATS2; [2]) [nM] | SMILES | also measured
13 | 983 | 5 | NCc1ccc(-c2ccnc3[nH]cc(-c4ccccc4)c23)cc1 [Compound 253, (4-(3-phenyl-1H-pyrrolo[2,3-b]pyridin-4-yl)phenyl) methanamine] | 
3.7 | 312 | 5.5 | Cc1cc(-c2ccnc3[nH]cc(F)c23)ccc1CN [Compound 211, (4-(3-fluoro-1H-pyrrolo[2,3-b]pyridin-4-yl)-2-methylphenyl) methanamine] | 

The remaining lines, values behind:

SMILES | IC50 (LATS1; [2]) [nM] | IC50 (AKT; [2]) [nM] | IC50 (LATS2; [2]) [nM] | also measured
NCC(O)(c1ccc(Cl)cc1)c1ccc(-c2ccnc3[nH]cc(F)c23)cc1 (stereo not drawn) [Compound 1002, 2-amino-1-(4-chlorophenyl)-1-(4-(3-fluoro-1H-pyrrolo[2,3-b]pyridin-4-yl)phenyl)ethan-1-ol] |  |  |  | IC50 (LATS1; [1]): 5.7 nM; IC50 (AKT; [1]): 4.6 nM; IC50 (LATS2; [1]): 11.1 nM
NCC(O)(c1ccc(Cl)cc1)c1ccc(-c2ccnc3[nH]cc(-c4cccnc4)c23)cc1 (stereo not drawn) [Compound 1007, 2-amino-1-(4-chlorophenyl)-1-(4-(3-(pyridin-3-yl)-1H-pyrrolo[2,3-b]pyridin-4-yl)phenyl)ethan-1-ol] |  |  |  | IC50 (LATS1; [1]): 4.3 nM; IC50 (AKT; [1]): 35.2 nM; IC50 (LATS2; [1]): 6.1 nM
Cc1cc(-c2ccnc3[nH]cc(C#N)c23)cc(F)c1[C@@]1(O)[C@H](C)CN(C(=O)CNCC(F)(F)F)C[C@@H]1C [Compound 2014, 4-(3-fluoro-4-((3S,4s,5R)-4-hydroxy-3,5-dimethyl-1-((2,2,2-trifluoroethyl)glycyl)piperidin-4-yl)-5-methylphenyl)-1H-pyrrolo[2,3-b]pyridine-3-carbonitrile] |  |  |  | IC50 (LATS1; biochemical kinase inhibition): 7.1 nM; IC50 (AKT; biochemical kinase inhibition): 3010 nM; IC50 (LATS2; biochemical kinase inhibition): 6 nM
Cc1cc(-c2ccnc3[nH]cc(F)c23)ccc1[C@@]1(O)[C@H](C)CNC[C@@H]1C [Compound 9, (3S,4s,5R)-4-(4-(3-fluoro-1H-pyrrolo[2,3-b]pyridin-4-yl)-2-methylphenyl)-3,5-dimethylpiperidin-4-ol] | 9.4 | 89.2 | 6.6 | 
C[C@@H]1CN(C2COC2)C[C@H](C)[C@@]1(O)c1c(F)cc(-c2ccnc3[nH]cc(F)c23)cc1F [Compound 45, (3S,4s,5R)-4-(2,6-difluoro-4-(3-fluoro-1H-pyrrolo[2,3-b]pyridin-4-yl)phenyl)-3, S-dimethyl-1-(oxetan-3-yl)piperidin-4-ol] | 3.4 | 1170 | 9.8 | 
C[C@@H]1CNC[C@H](C)[C@@]1(O)c1ccc(-c2ccnc3[nH]cc(F)c23)cc1F [Compound 7, (3S,4s,5R)-4-(2-fluoro-4-(3-fluoro-1H-pyrrolo[2,3-b]pyridin-4-yl)phenyl)-3,5-dimethyl piperidin-4-ol] | 15.9 | 192 | 6.3 | 
Cc1cc(-c2ccnc3[nH]cc(C#N)c23)cc(F)c1[C@@]1(O)[C@H](C)CN(C(=O)CN)C[C@@H]1C [Compound 2004, 4-(3-fluoro-4-((3S,4s,5R)-1-glycyl-4-hydroxy-3,5-dimethylpiperidin-4-yl)-5-methylphenyl)-1H-pyrrolo[2,3-b]pyridine-3-carbonitrile] |  |  |  | IC50 (LATS1; biochemical kinase inhibition): 6.7 nM; IC50 (AKT; biochemical kinase inhibition): 118 nM; IC50 (LATS2; biochemical kinase inhibition): 2 nM
Cc1cc(-c2ccnc3[nH]cc(F)c23)ncc1[C@@]1(O)[C@H](C)CN(C2CCS(=O)(=O)CC2)C[C@@H]1C [Compound 51, 4-((3R,4s,5S)-4-(6-(3-fluoro-1H-pyrrolo[2,3-b]pyridin-4-yl)-4-methylpyridin-3-yl)-4-hydroxy-3,5-dimethylpiperidin-1-yl)tetrahydro-2H-thiopyran 1,1-dioxide] | 2080 | > 10000 | 4250 | 
C[C@@H]1CN(CC(N)=O)C[C@H](C)[C@@]1(O)c1c(F)cc(-c2ccnc3[nH]cc(F)c23)cc1F [Compound 88, 2-((3R,4s,5S)-4-(2,6-difluoro-4-(3-fluoro-1H-pyrrolo[2,3-b]pyridin-4-yl)phenyl)-4-hydroxy-3,5-dimethylpiperidin-1-yl)acetamide] | 2.5 | 323 | 2.9 | 
C[C@@H]1CNC[C@H](C)[C@@]1(O)c1ccc(-c2ccnc3[nH]cc(F)c23)cc1Cl [Compound 1, (3S,4S,5R)-4-(2-chloro-4-(3-fluoro-1H-pyrrolo[2,3-b]pyridin-4-yl)phenyl)-3,5-dimethylpiperidin-4-ol] | 11.3 | 15.4 | 14.6 | 
C[C@@H]1CN(C2CCC2)C[C@H](C)[C@@]1(O)c1c(F)cc(-c2ccnc3[nH]cc(F)c23)cc1F [Compound 46, (3R,4s,5S)-1-cyclobutyl-4-(2,6-difluoro-4-(3-fluoro-1H-pyrrolo[2,3-b]pyridin-4-yl)phenyl)-3,5-dimethylpiperidin-4-ol] | 1.7 | 358 | 4 | 
C[C@@H]1CN(C(=O)CN)C[C@H](C)[C@@]1(O)c1c(F)cc(-c2ccnc3[nH]cc(F)c23)cc1F [Compound 58] | 22 | 621 | 11.1 | 
NCC(O)(c1ccc(Cl)cc1)c1ccc(-c2ccnc3[nH]cc(-c4ccccc4)c23)cc1 (stereo not drawn) [Compound 1006, 2-amino-1-(4-chlorophenyl)-1-(4-(3-phenyl-1H-pyrrolo[2,3-b]pyridin-4-yl)phenyl)ethan-1-ol] |  |  |  | IC50 (LATS1; [1]): 23 nM; IC50 (AKT; [1]): 230 nM; IC50 (LATS2; [1]): 20 nM
Cc1cc(-c2ccnc3[nH]cc(F)c23)cc(F)c1[C@@]1(O)[C@H](C)CN(C(C)C)C[C@@H]1C [Compound 305, (3S,4s,5R)-4-(2-fluoro-4-(3-fluoro-1H-pyrrolo[2,3-b]pyridin-4-yl)-6-methylphenyl)-1-isopropyl-3,5-dimethylpiperidin-4-ol] | 4.1 | 758 | 3.7 | 
OC1(c2ccc(-c3ccnc4[nH]ccc34)cc2)CCNCC1 [Compound 111, 4-(4-(1H-pyrrolo[2,3-b]pyridin-4-yl)phenyl)piperidin-4-ol] | 22 | 1100 | 22 | 
Clc1c[nH]c2nccc(-c3ccc(C4CCNCC4)cc3)c12 [Compound 173, 3-chloro-4-(4-(piperidin-4-yl)phenyl)-1H-pyrrolo[2,3-b]pyridine] | 7.2 | 330 | 8 | 
